Experimental data published in article PMC7481439 (Frontiers in Pediatrics, 2020).
Marks after values point to notes of the source that are not given here.

Columns and labels:
[1] = neonatal centrifugal-based circuit, volume 200 ml, recovery at 180 min, n = 2; ref Wildschut ([18]); cited from earlier work
[2] = Table 2; Drug Bank online database; cited from earlier work
[3] = adult centrifugal-based circuit, volume 800 ml, n = 3, ref Lemaitre ([39]); cited from earlier work
[4] = Spontaneous drug degradation (T2 control sample analysed at 24 h); conditions: whole blood control sample drawn at 2 min, kept in EDTA tube at the temperature of the circuits until 24 h; difference in drug recovery between T2 and T2-24; average
[5] = In vitro closed-loop ECMO circuit model: drug recovery / sequestration
[6] = volume of distribution, listed under physico-chemical data; source not stated for Vd; cited from earlier work
[7] = adult centrifugal-based circuit, volume 670 ml, n = 4, ref Shekar ([22]); cited from earlier work
[8] = set-up: method as in PMID 18048412; conditions: Drug Bank online database; cited from earlier work

SMILES | Mean drug recovery, Medos n [1] | PB % [2] [%] | Mean drug recovery at 24 h, Quadrox a (Lemaitre) [3] [%] | Spontaneous degradation [4] [%] | Decrease of drug level after 24 h, ILA active ([5]; ILA active circuit, whole blood primed, 24-h exposure) [%] | Mean drug recovery after 24 h of circulation, r-ML ([5]; MiniLung (infant) circuit, whole blood primed, 700 ml/min, 24 h, dose VOR 40 mg, VAN 54 mg, expected level VOR 117.1, VAN 177.1 mg/L, corrected for spontaneous degradation, plasma, LC-MS/MS (VOR) or immune-assay (VAN), mean (±SD), n = 2 circuits, SD) | Mean drug recovery after 24 h of circulation, r-MLP ([5]; MiniLung petite (neonatal) circuit, whole blood primed, 500 ml/min, 24 h, dose VOR 35 mg, VAN 45 mg, expected level VOR 140, VAN 180 mg/L, corrected for spontaneous degradation, plasma, LC-MS/MS (VOR) or immune-assay (VAN), mean (±SD), n = 3 circuits, SD) | Decrease of drug level after 24 h, XLung ([5]; XLung circuit, whole blood primed, 24-h exposure) [%] | Mean drug recovery after 24 h of circulation, r-XL ([5]; Xlung (adult) circuit, whole blood primed, […], 24 h, dose VOR 68 mg, VAN 91.8 mg, expected level VOR 143.2, VAN 193.7 mg/L, corrected for spontaneous degradation, plasma, LC-MS/MS (VOR) or immune-assay (VAN), mean (±SD), n = 2 circuits, SD) | Mean drug recovery at 24 h, ML ([5]; current experiment, MiniLung circuit, whole blood primed, volume 310 ml, 24 h, n = 2) [%] | Mean drug recovery at 24 h, MLP ([5]; current experiment, MiniLung petite circuit, whole blood primed, volume 250 ml, 24 h, n = 3) [%] | Mean drug recovery at 24 h, Xlung ([5]; current experiment, Xlung circuit, whole blood primed, volume 480 ml, 24 h, n = 2) [%] | Mean drug recovery at 24 h, iLA ([5]; current experiment, iLAActivve circuit, whole blood primed, volume 400 ml, 24 h, n = 2) [%] | Mean drug recovery after 24 h of circulation, r-iLA ([5]; iLAActivve iLA (pediatric) circuit, whole blood primed, […], 24 h, dose VOR 52.5 mg, VAN 67.5 mg, expected level VOR 134.7, VAN 173.2 mg/L, corrected for spontaneous degradation, plasma, LC-MS/MS (VOR) or immune-assay (VAN), mean (±SD), n = 2 circuits) | Mean percentage of drug recovery at 24 h ([5]; mean over all nine whole-blood primed circuits (MLP, ML, iLA, XLung), single bolus, pre-membrane (P2) plasma samples, 24 h, corrected for average spontaneous degradation, LC-MS/MS (voriconazole), immune-assay Architect (vancomycin), samples in triplicate) [%] | Decrease of drug level after 24 h, minilung ([5]; minilung circuit, whole blood primed, 24-h exposure) [%] | Vd [6] [L/kg] | Mean drug recovery at 24 h, Quadrox a (Shekar) [7] [%] | LogP [8]
CN[C@H](CC(C)C)C(=O)N[C@H]1C(=O)N[C@@H](CC(N)=O)C(=O)N[C@H]2C(=O)N[C@H]3C(=O)N[C@H](C(=O)N[C@H](C(=O)O)c4cc(O)cc(O)c4-c4cc3ccc4O)[C@H](O)c3ccc(c(Cl)c3)Oc3cc2cc(c3O[C@@H]2O[C@H](CO)[C@@H](O)[C@H](O)[C@H]2O[C@H]2C[C@](C)(N)[C@H](O)[C@H](C)O2)Oc2ccc(cc2Cl)[C@H]1O [vancomycin] | 67.1^* % | 50 | 100 | 2.4 | 38 | 133.2 (±49.7) mg/L | 112 (±31.6) mg/L | 50 | 96.5 (±13.5) mg/L | 73 | 60 | 48 | 60 | 108.5 (±4,4) mg/L | 62 | 25 | 0.4 to 1 | 90 | –
C[C@@H](c1ncncc1F)[C@](O)(Cn1cncn1)c1ccc(F)cc1F [voriconazole] | – | 58 | – | – | – | – | – | – | – | – | – | – | – | – | – | – | 4.6 | – | 1.8
